# Reference: ChEMBL document CHEMBL1155322, “Pharmacophore modeling and virtual screening for the discovery of new transforming growth factor-beta type I receptor (ALK5) inhibitors” (Eur J Med Chem, 2009)
# pIC50: −log10 of the molar value.
# Biological target: T1, TGF-beta receptor type-1 (Homo sapiens, UniProt P36897)
# T1 sequence (P36897 whole entry): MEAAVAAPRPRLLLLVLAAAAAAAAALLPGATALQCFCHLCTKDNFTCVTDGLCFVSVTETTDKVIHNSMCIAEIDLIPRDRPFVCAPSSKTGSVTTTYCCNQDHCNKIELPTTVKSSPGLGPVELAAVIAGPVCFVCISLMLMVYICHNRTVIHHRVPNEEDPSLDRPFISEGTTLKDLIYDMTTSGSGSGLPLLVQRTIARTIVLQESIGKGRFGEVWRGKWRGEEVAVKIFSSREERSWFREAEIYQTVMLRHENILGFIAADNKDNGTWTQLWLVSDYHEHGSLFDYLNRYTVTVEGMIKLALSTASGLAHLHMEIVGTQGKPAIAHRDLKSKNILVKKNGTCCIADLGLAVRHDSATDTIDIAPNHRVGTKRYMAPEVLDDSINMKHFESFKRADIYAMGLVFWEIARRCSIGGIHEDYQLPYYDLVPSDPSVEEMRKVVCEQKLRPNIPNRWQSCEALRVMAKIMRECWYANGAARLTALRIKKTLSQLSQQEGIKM
row,SMILES,pIC50
1,Nc1nc(-c2cccc(Cl)n2)c(-c2ccnc3ccccc23)s1,5.75
2,CCSc1ccc2c(-c3c(-c4ccccn4)nn4c3CCC4)ccnc2c1,6.96
3,Cc1cccc2ccc(-c3sc(N)nc3-c3ccccn3)nc12,7.52
4,Cc1cccc(-c2nn3c(c2-c2ccc4c(c2)ncn4C)CCC3)n1,5.77
5,Cc1cccc(-c2[nH]c(CNc3ccc(C(N)=O)cc3)nc2-c2ccc3c(c2)OCO3)n1,7.68
6,Nc1nc(-c2ccc(F)cc2)c(-c2ccc3ncccc3n2)s1 [GW785804X],7.96
7,Cc1cccnc1-c1nc(N)sc1-c1ccc2ncccc2n1,8.22
8,Nc1ccc2c(-c3c(-c4ccccn4)nn4c3CCC4)ccnc2c1,7.23
9,Nc1nc(-c2cccc(Cl)c2)c(-c2ccc3ncccc3n2)s1 [GW780159X],7.89
10,CN(C)CCNC(=O)Nc1ccc2c(-c3c(-c4ccccn4)nn4c3CCC4)ccnc2c1,7.74
11,CCOc1ccc2c(-c3c(-c4cccc(C)n4)nn4c3CCC4)ccnc2c1,7.06
12,C#Cc1ccc(NCc2nc(-c3ccc4c(c3)OCO4)c(-c3cccc(C)n3)[nH]2)cc1,6.76
13,Fc1ccc(C2C(c3ccncc3)NC3SCCN32)cc1 (stereo unspecified),4.30
14,CCc1cccc(-c2nn3c(c2-c2ccnc4ccccc24)CCC3)n1,7.15
15,CN(C)CCCNC(=O)Nc1ccc2c(-c3c(-c4ccccn4)nn4c3CCC4)ccnc2c1,6.59
16,c1ccc(-c2n[nH]cc2-c2ccnc(-c3ccc(CNC4CCCOC4)cc3)c2)nc1 (stereo unspecified),7.33
17,CN(C)CCCc1cccc(-c2cc(-c3c[nH]nc3-c3ccccn3)ccn2)c1,7.82
18,C#Cc1ccc(CNc2nc(-c3ccc4c(c3)OCO4)c(-c3cccc(C)n3)[nH]2)cc1,6.82

row,SMILES,pIC50
1,CCc1cccc(-c2[nH]c(CNc3ccc(C(N)=O)cc3)nc2-c2ccc3c(c2)OCO3)n1,7.34
2,CC(=O)Nc1ccc2c(-c3c(-c4ccccn4)nn4c3CCC4)ccnc2c1,7.06
3,CCS(=O)(=O)c1ccc2c(-c3c(-c4ccccn4)nn4c3CCC4)ccnc2c1,5.03
4,Fc1ccc(-c2nn3c(c2-c2ccnc4ccccc24)CCC3)nc1,6.82
5,COC(=O)Nc1ccc2c(-c3c(-c4ccccn4)nn4c3CCC4)ccnc2c1,7.40
6,C#Cc1cccc(NCc2nc(-c3ccc4nccnc4c3)c(-c3cccc(CC)n3)[nH]2)c1,6.92
7,O=C(Nc1ccc2c(-c3c(-c4ccccn4)nn4c3CCC4)ccnc2c1)OCCO,7.10
8,c1ccc(-c2nn3c(c2-c2ccnc4ccccc24)CCC3)nc1,6.98
9,Cc1cccc(-c2[nH]c(NCc3ccc(C#N)cc3)nc2-c2ccc3c(c2)OCO3)n1,7.62
10,Cc1cccc(-c2[nH]c(CNc3ccc(C#N)cc3)nc2-c2ccc3c(c2)OCO3)n1,7.34
11,CCc1[nH]c(-c2ccc(OC)cc2)nc1-c1ccncc1 [SB-202474],4.52
12,Cc1cccc(-c2nn3c(c2-c2ccnc4cc(Cl)ccc24)CCC3)n1,7.32
13,O=C(CCO)Nc1ccc2c(-c3c(-c4ccccn4)nn4c3CCC4)ccnc2c1,7.49
14,COCCC(=O)Nc1ccc2c(-c3c(-c4ccccn4)nn4c3CCC4)ccnc2c1,7.47
15,c1ccc(-c2n[nH]cc2-c2ccc3ncccc3n2)nc1,7.72
16,CN(C)CCCn1cnc2cc(-c3c(-c4ccccn4)nn4c3CCC4)ccc21,6.40
17,O=C(O)c1ccc(-c2cc(-c3c[nH]nc3-c3ccccn3)ccn2)cc1,7.57
18,CN(C)CC(=O)Nc1ccc2c(-c3c(-c4ccccn4)nn4c3CCC4)ccnc2c1,7.19
